Measured values reported in patent US12428403B2, “N-(heterocyclyl and heterocyclylalkyl)-3-benzylpyridin-2-amine derivatives as SSTR4 agonists” (Takeda Pharmaceutical Company Limited, priority 2020, dated 2025).

Experiments:
SSTR4 [1] = biological target: T1, SSTR4 (Homo sapiens, UniProt P31391); assay: SSTR4 I-125 somatostatin competition binding assay (CHO-K1 membranes); set-up: host or cells: CHO-K1; conditions: competition with I-125 labeled somatostatin, membranes from CHO-K1 overexpressing SSTR4; read-out: SSTR4 Binding pIC50 (converted)
T1 sequence (P31391 whole entry): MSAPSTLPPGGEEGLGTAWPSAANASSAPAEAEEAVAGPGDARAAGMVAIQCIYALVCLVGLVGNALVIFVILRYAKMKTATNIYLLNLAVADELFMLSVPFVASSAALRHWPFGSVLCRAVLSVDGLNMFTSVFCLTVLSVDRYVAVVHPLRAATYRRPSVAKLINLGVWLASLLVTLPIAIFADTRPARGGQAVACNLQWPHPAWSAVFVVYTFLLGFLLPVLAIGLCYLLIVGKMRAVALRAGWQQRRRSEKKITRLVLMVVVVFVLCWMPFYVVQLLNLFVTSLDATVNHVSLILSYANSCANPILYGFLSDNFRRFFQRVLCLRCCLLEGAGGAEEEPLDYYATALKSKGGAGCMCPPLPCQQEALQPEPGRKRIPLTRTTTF
Excerpt: SSTR4I-125 Somatostatin Competition Binding Assay
Membranes from CHO-K1 cells overexpressing SSTR4 are purchased from Perkin Elmer (catalog number ES-524-M400UA). […] The scintillator sheets are melted to filters using a heat block.

SSTR4 [2] = biological target: T1, SSTR4; assay: cell-based
SSTR1 = SSTR1 (Homo sapiens, UniProt P30872); assay: biochemical;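 also: competitive binding to membranes of CHO-K1 cells overexpressing SSTR1, incubated 60 min at room temperature, radioactivity read by scintillation counting after filtration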
SSTR1, sequence (P30872 whole entry): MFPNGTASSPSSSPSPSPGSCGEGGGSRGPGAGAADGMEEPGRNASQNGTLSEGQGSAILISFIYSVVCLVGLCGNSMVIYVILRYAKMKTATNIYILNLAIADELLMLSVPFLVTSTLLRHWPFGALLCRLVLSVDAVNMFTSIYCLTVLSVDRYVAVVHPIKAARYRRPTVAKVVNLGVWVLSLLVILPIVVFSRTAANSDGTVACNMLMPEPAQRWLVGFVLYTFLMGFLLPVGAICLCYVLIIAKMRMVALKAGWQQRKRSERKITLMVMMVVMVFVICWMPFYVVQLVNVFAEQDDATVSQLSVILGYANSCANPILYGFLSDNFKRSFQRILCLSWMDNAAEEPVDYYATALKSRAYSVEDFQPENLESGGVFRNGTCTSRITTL
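For EC50 in this document: CHO-K1 cells overexpressing SSTR4, reduction of forskolin-driven cAMP after 30 min compound exposure at room temperature, cAMP read by HTRF LANCE Ultra kit.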
Procedure: SSTR1 I-125 Somatostatin Competition Binding Assay for Selectivity Versus SSTR1
Membranes from CHO-K1 cells overexpressing SSTR1 are purchased from Perkin Elmer (catalog number ES-520-M400UA). Test compounds are suspended in DMSO and then diluted in assay buffer (25 mM HEPES pH 7.4, 10 mM MgCl2, 1 mM CaCl2, 0.5% BSA) plus 0.4 nM I-125 labeled somatostatin (Perkin Elmer catalog number NEX389). […] Then 10 μg of SSTR1 membranes in 50 μL assay buffer are added per well. The plate is incubated for 60 minutes at room temperature. […] The contents of the assay plate are transferred to filters with a TomTech harvester and washed 5 times with 20 mM HEPES, 100 mM NaCl. […] The scintillator sheets are melted to the filters using a heat block. The filters are then read in a MicroBeta scintillation counter. Binding Ki curves are generated using Activity Base for Screening Data Management and the results are reported as pIC50.

| IC50 (SSTR4 [1]) | EC50 (SSTR4 [2]) | IC50 (SSTR1) | Compound |
| --- | --- | --- | --- |
| 25.1 nM | 1.74 nM | 14500 nM | Cc1nnc([C@@H](C)c2ccccc2)c(NCCN2CCC2)n1 (single isomer, unassigned) [Example 145] |
| 380 nM | 26.9 nM | 3160 nM | CO[C@H]1CCN(C(=O)c2cnc(NCCN3CCCC3)c([C@H](C)c3ccc(F)cc3)n2)C1 [Example 10, (6-((R)-1-(4-fluorophenyl)ethyl)-5-((2-(pyrrolidin-1-yl)ethyl)amino)pyrazin-2-yl)((S)-3-methoxypyrrolidin-1-yl)methanone] |
| 214 nM | 28.8 nM | 3470 nM | CO[C@@H]1CCN(C(=O)c2cnc(NCCN3CCCC3)c([C@H](C)c3ccc(F)cc3)n2)C1 [Example 11, (6-((R)-1-(4-fluorophenyl)ethyl)-5-((2-(pyrrolidin-1-yl)ethyl)amino)pyrazin-2-yl)((R)-3-methoxypyrrolidin-1-yl)methanone] |
| 166 nM | 12 nM | 8910 nM | C[C@H](c1ccc(F)cc1)c1nc(C(=O)NC2CCOCC2)cnc1NCCN1CCCC1 [Example 18, (R)-6-(1-(4-fluorophenyl)ethyl)-5-((2-(pyrrolidin-1-yl)ethyl)amino)-N-(tetrahydro-2H-pyran-4-yl)pyrazine-2-carboxamide] |
| 50.1 nM | 5.37 nM | 5750 nM | CC(c1ccc(F)cc1)c1nc(C(N)=O)cnc1NCCN1CCCC1 (stereo not drawn) [Example 19, 6-(1-(4-fluorophenyl)ethyl)-5-((2-(pyrrolidin-1-yl)ethyl)amino)pyrazine-2-carboxamide] |
| 77.6 nM | 3.72 nM | 10500 nM | CNC(=O)c1cnc(NCCN2CCCC2)c(C(C)c2ccc(F)cc2)n1 (stereo not drawn) [Example 22, 6-(1-(4-fluorophenyl)ethyl)-N-methyl-5-((2-(pyrrolidin-1-yl)ethyl)amino)pyrazine-2-carboxamide] |
| 389 nM | 4.68 nM | 1660 nM | CC(c1ccc(F)cc1)c1ncc(C(=O)N(C)C)nc1NCCN1CCCC1 (stereo not drawn) [Example 28] |
| 490 nM | 61.7 nM | 4570 nM | CC(c1ccc(F)cc1)c1ncc(C(N)=O)nc1NCCN1CCCC1 (stereo not drawn) [Example 37, 5-(1-(4-fluorophenyl)ethyl)-6-((2-(pyrrolidin-1-yl)ethyl)amino)pyrazine-2-carboxamide] |
| 67.6 nM | 4.79 nM | 11700 nM | CNC(=O)c1nc(Cc2ccc(F)cc2)c(NCCN2CCCC2)nc1C [Example 44, 6-(4-fluorobenzyl)-N,3-dimethyl-5-((2-(pyrrolidin-1-yl)ethyl)amino)pyrazine-2-carboxamide] |
| 16.6 nM | 0.977 nM | 2570 nM | CNC(=O)c1nc(C(C)c2ccc(F)cc2)c(NCCN2CCCC2)nc1C (stereo not drawn) [Example 49, 6-(1-(4-fluorophenyl)ethyl)-N,3-dimethyl-5-((2-(pyrrolidin-1-yl)ethyl)amino)pyrazine-2-carboxamide] |
| 16.2 nM | 1.86 nM | 1620 nM | COCCNC(=O)c1nc(C(C)c2ccc(F)cc2)c(NCCN2CCCC2)nc1C (stereo not drawn) [Example 52, 6-(1-(4-fluorophenyl)ethyl)-N-(2-methoxyethyl)-3-methyl-5-((2-(pyrrolidin-1-yl)ethyl)amino)pyrazine-2-carboxamide] |
| 33.9 nM | 13.8 nM | 1260 nM | Cc1nc(NCCN2CCCC2)c(C(C)c2ccc(F)cc2)nc1C(=O)N[C@H]1C[C@@H](F)C1 (stereo partly drawn) [Example 64, N-(cis-3-fluorocyclobutyl)-6-(1-(4-fluorophenyl)ethyl)-3-methyl-5-((2-(pyrrolidin-1-yl)ethyl)amino)pyrazine-2-carboxamide] |

More lines, now with the values behind:

| Compound | IC50 (SSTR4 [1]) | EC50 (SSTR4 [2]) | IC50 (SSTR1) |
| --- | --- | --- | --- |
| Cc1nnc([C@H](C)c2ccc(F)cc2)c(N[C@H]2CCN(C)C2)n1 (single isomer, unassigned) [Example 146] | 91.2 nM | 27.5 nM | 10000 nM |
| Cc1nnc([C@H](C)c2ccccc2)c(N[C@@H]2CCN(C)C2)n1 (single isomer, unassigned) [Example 149] | 174 nM | 39.8 nM | 12900 nM |
| Cc1nnc([C@@H](C)c2ccccc2)c(N[C@H]2CCN(C)C2)n1 (single isomer, unassigned) [Example 152] | 204 nM | 26.9 nM | 10000 nM |
| C[C@H](c1ccc(F)cc1)c1nc(C(=O)N2CCCC2)cnc1NCCN1CCCC1 [Example 8, (R)-(6-(1-(4-fluorophenyl)ethyl)-5-((2-(pyrrolidin-1-yl)ethyl)amino)pyrazin-2-yl)(pyrrolidin-1-yl)methanone] | 141 nM | 31.6 nM | 1950 nM |
| C[C@H](c1ccc(F)cc1)c1nc(C(=O)N[C@H]2CCOC2)cnc1NCCN1CCCC1 [Example 12, 6-((R)-1-(4-fluorophenyl)ethyl)-5-((2-(pyrrolidin-1-yl)ethyl)amino)-N-((S)-tetrahydrofuran-3-yl)pyrazine-2-carboxamide] | 162 nM | 15.1 nM | 5620 nM |
| C[C@H](c1ccc(F)cc1)c1nc(C(=O)N[C@@H]2CCOC2)cnc1NCCN1CCCC1 [Example 13, 6-((R)-1-(4-fluorophenyl)ethyl)-5-((2-(pyrrolidin-1-yl)ethyl)amino)-N-((R)-tetrahydrofuran-3-yl)pyrazine-2-carboxamide] | 162 nM | 11.7 nM | 4070 nM |
| C[C@H](c1ccc(F)cc1)c1nc(C(=O)N(C)C2CC2)cnc1NCCN1CCCC1 [Example 17, (R)-N-cyclopropyl-6-(1-(4-fluorophenyl)ethyl)-N-methyl-5-((2-(pyrrolidin-1-yl)ethyl)amino)pyrazine-2-carboxamide] | 162 nM | 11.7 nM | 7940 nM |
| Cc1cccc(Cc2nc(C(=O)N(C)C)c(C)nc2NCCN2CCCC2)c1 [Example 39, N,N,3-trimethyl-6-(3-methylbenzyl)-5-((2-(pyrrolidin-1-yl)ethyl)amino)pyrazine-2-carboxamide] | 41.7 nM | 4.27 nM | 26900 nM |
| CNC(=O)c1nc(Cc2cccc(C)c2)c(NCCN2CCCC2)nc1C [Example 40, N,3-dimethyl-6-(3-methylbenzyl)-5-((2-(pyrrolidin-1-yl)ethyl)amino)pyrazine-2-carboxamide] | 21.9 nM | 1.17 nM | 8910 nM |
| Cc1cccc(Cc2nc(C(N)=O)c(C)nc2NCCN2CCCC2)c1 [Example 41, 3-methyl-6-(3-methylbenzyl)-5-((2-(pyrrolidin-1-yl)ethyl)amino)pyrazine-2-carboxamide] | 23.4 nM | 2.09 nM | 13200 nM |
| Cc1nc(NCCN2CCCC2)c(Cc2ccc(F)cc2)nc1C(=O)N(C)C [Example 42, 6-(4-fluorobenzyl)-N,N,3-trimethyl-5-((2-(pyrrolidin-1-yl)ethyl)amino)pyrazine-2-carboxamide] | 138 nM | 12.6 nM | 10000 nM |
| CNC(=O)c1nc(Cc2ccc(F)cc2)c(NCCN2CCCC2)nc1C [Example 43, 6-(4-fluorobenzyl)-N,3-dimethyl-5-((2-(pyrrolidin-1-yl)ethyl)amino)pyrazine-2-carboxamide] | 39.8 nM | 12.6 nM | 9770 nM |
| Cc1nc(NCCN2CCCC2)c(C(C)c2ccc(F)cc2)nc1C(=O)N(C)C (stereo not drawn) [Example 48, 6-(1-(4-fluorophenyl)ethyl)-N,N,3-trimethyl-5-((2-(pyrrolidin-1-yl)ethyl)amino)pyrazine-2-carboxamide] | 11.7 nM | 0.776 nM | 9550 nM |
| Cc1nc(NCCN2CCCC2)c(C(C)c2ccc(F)cc2)nc1C(=O)NCCF (stereo not drawn) [Example 51, N-(2-fluoroethyl)-6-(1-(4-fluorophenyl)ethyl)-3-methyl-5-((2-(pyrrolidin-1-yl)ethyl)amino)pyrazine-2-carboxamide] | 18.2 nM | 3.09 nM | 81.3 nM |
| Cc1nc(NCCN2CCCC2)c(C(C)c2ccc(F)cc2)nc1C(=O)N1CCC(F)(F)C1 (stereo not drawn) [Example 60, (3,3-difluoropyrrolidin-1-yl)(6-(1-(4-fluorophenyl)ethyl)-3-methyl-5-((2-(pyrrolidin-1-yl)ethyl)amino)pyrazin-2-yl)methanone] | 40.7 nM | 4.9 nM | 1580 nM |
| Cc1nc(NCCN2CCCC2)c(C(C)c2ccc(F)cc2)nc1C(=O)N[C@@H]1CCOC1 (stereo partly drawn) [Example 61, 6-(1-(4-fluorophenyl)ethyl)-3-methyl-5-((2-(pyrrolidin-1-yl)ethyl)amino)-N-((R)-tetrahydrofuran-3-yl)pyrazine-2-carboxamide] | 20.4 nM | 15.8 nM | 1510 nM |
| Cc1nc(NCCN2CCCC2)c(C(C)c2ccc(F)cc2)nc1C(=O)NC1CC1 (stereo not drawn) [Example 62, N-cyclopropyl-6-(1-(4-fluorophenyl)ethyl)-3-methyl-5-((2-(pyrrolidin-1-yl)ethyl)amino)pyrazine-2-carboxamide] | 14.5 nM | 4.27 nM | 1410 nM |
| CCN(C)C(=O)c1nc(C(C)c2ccc(F)cc2)c(NCCN2CCCC2)nc1C (stereo not drawn) [Example 63, N-ethyl-6-(1-(4-fluorophenyl)ethyl)-N,3-dimethyl-5-((2-(pyrrolidin-1-yl)ethyl)amino)pyrazine-2-carboxamide] | 18.2 nM | 1.35 nM | 5370 nM |
| Cc1nc(NCCN2CCCC2)c(C(C)c2ccc(F)cc2)nc1C(=O)N(C)C1CC1 (stereo not drawn) [Example 65, N-cyclopropyl-6-(1-(4-fluorophenyl)ethyl)-N,3-dimethyl-5-((2-(pyrrolidin-1-yl)ethyl)amino)pyrazine-2-carboxamide] | 17 nM | 1.62 nM | 3390 nM |
